Source: patent US20230312550A1, “N-(2-(4-CYANOTHIAZOLIDIN-3-YL)-2-OXOETHYL)-QUINOLINE-4-CARBOXAMIDES” (AstraZeneca AB, priority 2020, published 2023)
Values after ≈ are worked out from the molar mass of the structure shown.

Tests used:
Kinetic solubility = settings: kinetic from dmso stock
Procedure: Kinetic solubility was measured as described in Comput Aided Mol Des 2015, 29, 795.

[1] = molecular target: Prolyl endopeptidase, Prolyl Oligopeptidase (hPREP) (Homo sapiens (Human), UniProt P48147); assay: hPrep inhibition assay; assay type: biochemical; settings: hPREP 0.6 nM, Z-Gly-Pro-amino-methylcoumarin 50 μM; read-out: PREP IC50
Sequence of Prolyl endopeptidase, Prolyl Oligopeptidase (hPREP) (P48147 whole entry): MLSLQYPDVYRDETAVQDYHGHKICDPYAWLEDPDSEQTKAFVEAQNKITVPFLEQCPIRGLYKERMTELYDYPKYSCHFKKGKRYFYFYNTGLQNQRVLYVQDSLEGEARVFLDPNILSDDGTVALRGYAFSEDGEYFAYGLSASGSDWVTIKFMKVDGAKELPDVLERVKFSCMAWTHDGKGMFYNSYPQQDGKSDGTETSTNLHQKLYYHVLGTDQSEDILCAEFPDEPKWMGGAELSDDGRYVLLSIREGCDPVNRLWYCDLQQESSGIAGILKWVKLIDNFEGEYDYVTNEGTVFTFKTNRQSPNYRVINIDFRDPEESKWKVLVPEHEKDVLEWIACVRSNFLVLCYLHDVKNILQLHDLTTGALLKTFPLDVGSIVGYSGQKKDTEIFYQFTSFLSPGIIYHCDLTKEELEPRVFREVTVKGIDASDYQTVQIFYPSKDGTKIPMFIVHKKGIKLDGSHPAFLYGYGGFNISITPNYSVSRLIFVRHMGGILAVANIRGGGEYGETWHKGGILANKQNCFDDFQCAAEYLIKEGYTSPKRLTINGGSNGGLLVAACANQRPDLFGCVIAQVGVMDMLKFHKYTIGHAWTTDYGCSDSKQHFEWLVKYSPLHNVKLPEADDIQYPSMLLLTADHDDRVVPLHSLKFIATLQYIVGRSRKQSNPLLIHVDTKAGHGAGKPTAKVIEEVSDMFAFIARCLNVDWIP
In short: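 Recombinant human PREP at 0.6 nM final with Z-Gly-Pro-AMC substrate at 50 μM final in Tris-HCl pH 7.5, NaCl, Triton X-100, glutathione; 15 min rt preincubation then 20 min rt reaction in dark. AMC fluorescence (ex 340/em 460 nm); IC50 from one-site dose-response fit of % inhibition.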

hFAP (M39-A757) = hFAP (M39-A757) (Homo sapiens (Human), UniProt Q12884); assay: hFAP binding assay (surface plasmon resonance); settings: SPR, 20° C.; for hFAP Binding assay k(off) / hFAP Binding assay k(on): single cycle kinetics; for Kd: n = 1 or geometric mean n = 2-4
Sequence of hFAP (M39-A757) (Q12884 39-757): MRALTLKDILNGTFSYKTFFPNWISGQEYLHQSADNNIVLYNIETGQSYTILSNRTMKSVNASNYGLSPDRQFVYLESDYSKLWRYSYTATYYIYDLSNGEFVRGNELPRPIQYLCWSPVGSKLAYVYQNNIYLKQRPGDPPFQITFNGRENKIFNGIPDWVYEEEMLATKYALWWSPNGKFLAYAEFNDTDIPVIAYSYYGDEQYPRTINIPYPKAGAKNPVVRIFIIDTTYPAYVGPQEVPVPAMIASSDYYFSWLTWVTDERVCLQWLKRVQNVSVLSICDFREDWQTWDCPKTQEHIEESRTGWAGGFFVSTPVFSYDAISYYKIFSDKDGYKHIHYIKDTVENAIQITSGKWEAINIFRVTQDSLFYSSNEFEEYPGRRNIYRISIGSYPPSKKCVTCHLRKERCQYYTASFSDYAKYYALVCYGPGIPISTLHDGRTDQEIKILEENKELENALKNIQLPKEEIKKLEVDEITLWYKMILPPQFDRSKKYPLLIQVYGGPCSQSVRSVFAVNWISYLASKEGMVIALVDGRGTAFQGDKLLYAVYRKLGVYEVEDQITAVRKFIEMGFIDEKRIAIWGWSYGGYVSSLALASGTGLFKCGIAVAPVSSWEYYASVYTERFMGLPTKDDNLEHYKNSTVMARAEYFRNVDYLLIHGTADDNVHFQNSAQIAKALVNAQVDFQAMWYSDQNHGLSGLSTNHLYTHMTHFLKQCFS

[2] = molecular target: human Fibroblast activation protein alpha (hFAP) (Homo sapiens (Human), UniProt Q12884); assay: hFAP inhibition assay (tight binders); assay type: biochemical; settings: Ala-Pro-AMC 20 μM, n = 1 or geometric mean n = 2-6; also: hFAP 2.4 pM
Sequence of human Fibroblast activation protein alpha (hFAP) (Q12884 38-760): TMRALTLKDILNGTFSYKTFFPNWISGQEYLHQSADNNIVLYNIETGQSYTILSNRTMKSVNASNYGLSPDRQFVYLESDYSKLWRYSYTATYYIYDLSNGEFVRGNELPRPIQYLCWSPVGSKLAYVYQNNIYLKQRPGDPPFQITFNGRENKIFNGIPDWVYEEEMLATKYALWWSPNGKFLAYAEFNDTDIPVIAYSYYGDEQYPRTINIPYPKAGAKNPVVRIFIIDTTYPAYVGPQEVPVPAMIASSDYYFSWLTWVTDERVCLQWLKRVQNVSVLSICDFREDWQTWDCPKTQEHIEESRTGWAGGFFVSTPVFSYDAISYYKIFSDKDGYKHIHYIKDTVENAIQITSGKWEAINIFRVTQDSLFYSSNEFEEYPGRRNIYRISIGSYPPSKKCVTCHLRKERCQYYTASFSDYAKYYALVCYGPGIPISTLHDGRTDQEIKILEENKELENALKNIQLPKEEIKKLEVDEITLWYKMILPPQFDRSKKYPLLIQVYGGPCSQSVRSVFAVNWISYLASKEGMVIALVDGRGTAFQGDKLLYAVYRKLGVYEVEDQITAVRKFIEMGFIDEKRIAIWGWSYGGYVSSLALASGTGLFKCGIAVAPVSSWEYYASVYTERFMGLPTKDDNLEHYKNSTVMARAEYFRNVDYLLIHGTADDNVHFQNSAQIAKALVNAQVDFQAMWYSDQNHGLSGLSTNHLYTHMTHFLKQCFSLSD
Procedure: The plates were read on a PHERAstar® reader with excitation 340 nm and emission 460 nm. Data were analyzed in Genedata Screener®. IC50 values were determined by plotting % inhibition versus log compound concentration and using a one site dose response model.

[3] = Metabolic stability in rat hepatocytes (rHep); settings: n = 1 or geometric mean of n = 2-3
[4] = Metabolic stability in human liver microsomes (HLM); settings: human
Procedure: Metabolic stability in HLM was measured as described in J Comput Aided Mol Des 2015, 29, 795.

[5] = Solubility, kinetic solubility, n = 1 or average of n = 2-3
[6] = HLM CLint, n = 1 or average of n = 2-3

Compound	solubility (Kinetic solubility; [5])	IC50 [1]	hFAP Binding assay k(off) (hFAP (M39-A757))	hFAP Binding assay k(on) (hFAP (M39-A757))	Kd (hFAP (M39-A757))	IC50 [2]	rHep CLint [3]	microsomal CLint [4, 6]	solubility (Kinetic solubility)	microsomal CLint [4]
N#C[C@@H]1CSCN1C(=O)CNC(=O)c1ccnc2ccc(N3C[C@@H]4CCC[C@@H]43)cc12 (mixture of isomers) [Example 156, 6-((1RS,5RS)-6-Azabicyclo[3.2.0]heptan-6-yl)-N-(2-((R)-4-cyanothiazolidin-3-yl)-2-oxoethyl)quinoline-4-carboxamide]	100 µM	310 nM	0.000066 s⁻¹	1200000 M⁻¹ s⁻¹	0.056 nM	0.22 nM	120 μL/min/1E6	140 µL/min/mg		
N#C[C@@H]1CSCN1C(=O)CNC(=O)c1ccnc2ccc(N3CC4C(C3)C4(F)F)cc12 (stereo partly drawn) [Example 160, N-(2-((R)-4-Cyanothiazolidin-3-yl)-2-oxoethyl)-6-(6,6-difluoro-3-azabicyclo[3.1.0]hexan-3-yl)quinoline-4-carboxamide]	1.8 µM (≈ 0.798 µg/mL)	210 nM	0.000074 s⁻¹	1100000 M⁻¹ s⁻¹	0.068 nM	0.05 nM	33 μL/min/1E6	45 µL/min/mg		
N#C[C@@H]1CSCN1C(=O)CNC(=O)c1ccnc2ccc(N3CC(OC(F)(F)F)C3)cc12 [Example 132, (R)—N-(2-(4-Cyanothiazolidin-3-yl)-2-oxoethyl)-6-(3-(trifluoromethoxy)-azetidin-1-yl)quinoline-4-carboxamide]	13 µM (≈ 6.05 µg/mL)	3700 nM	0.00014 s⁻¹	270000 M⁻¹ s⁻¹	0.52 nM	0.41 nM	8.5 μL/min/1E6	38 µL/min/mg		
N#C[C@@H]1CSCN1C(=O)CNC(=O)c1ccnc2ccc(N3CC(CCF)C3)cc12 [Example 146, (R)—N-(2-(4-Cyanothiazolidin-3-yl)-2-oxoethyl)-6-(3-(2-fluoroethyl)-azetidin-1-yl)quinoline-4-carboxamide]	24 µM (≈ 10.3 µg/mL)	450 nM	0.00017 s⁻¹	1400000 M⁻¹ s⁻¹	0.12 nM	0.15 nM	4.3 μL/min/1E6	11 µL/min/mg		
N#C[C@@H]1CSCN1C(=O)CNC(=O)c1ccnc2ccc(-n3ccnc3-c3ccccc3)cc12 [Example 217, (R)—N-(2-(4-Cyanothiazolidin-3-yl)-2-oxoethyl)-6-(2-phenyl-1H-imidazol-1-yl)quinoline-4-carboxamide]	410 µM (≈ 192 µg/mL)	310 nM	0.0013 s⁻¹	1800000 M⁻¹ s⁻¹	0.71 nM	0.67 nM	37 μL/min/1E6	> 300 µL/min/mg		
N#C[C@@H]1CSCN1C(=O)CNC(=O)c1ccnc2ccc(N3CCC4(CCOCC4)CC3)cc12 [Example 162, (R)—N-(2-(4-cyanothiazolidin-3-yl)-2-oxoethyl)-6-(3-oxa-9-azaspiro[5.5]undecan-9-yl)quinoline-4-carboxamide]		280 nM	0.000028 s⁻¹	1900000 M⁻¹ s⁻¹	0.018 nM	0.053 nM	3.4 μL/min/1E6		140 µM (≈ 67.1 µg/mL)	44 µL/min/mg

Further lines, with some results ahead:

solubility (Kinetic solubility; [5])	IC50 [1]	hFAP Binding assay k(off) (hFAP (M39-A757))	hFAP Binding assay k(on) (hFAP (M39-A757))	Kd (hFAP (M39-A757))	IC50 [2]	rHep CLint [3]	microsomal CLint [4, 6]	Compound	solubility (Kinetic solubility)	microsomal CLint [4]
74 µM (≈ 31.3 µg/mL)	340 nM	0.000098 s⁻¹	9500000 M⁻¹ s⁻¹	0.013 nM	0.11 nM	17 μL/min/1E6	70 µL/min/mg	CCC1(C)CN(c2ccc3nccc(C(=O)NCC(=O)N4CSC[C@H]4C#N)c3c2)C1 [Example 137, (R)—N-(2-(4-Cyanothiazolidin-3-yl)-2-oxoethyl)-6-(3-ethyl-3-methyl-azetidin-1-yl)quinoline-4-carboxamide]		
25 µM (≈ 11.5 µg/mL)	170 nM			0.06 nM	0.061 nM	29 μL/min/1E6	170 µL/min/mg	CC1(C)CCc2cn(-c3ccc4nccc(C(=O)NCC(=O)N5CSC[C@H]5C#N)c4c3)nc21 [Example 117, (R)—N-(2-(4-Cyanothiazolidin-3-yl)-2-oxoethyl)-6-(6,6-dimethyl-5,6-dihydrocyclopenta[c]pyrazol-2(4H)-yl)quinoline-4-carboxamide]		
310 µM (≈ 149 µg/mL)	1800 nM	0.00016 s⁻¹	2400000 M⁻¹ s⁻¹	0.066 nM	0.13 nM	11 μL/min/1E6	32 µL/min/mg	N#C[C@@H]1CSCN1C(=O)CNC(=O)c1ccnc2ccc(N3CCO[C@@H](C(F)(F)F)C3)cc12 [Example 73, N-(2-((R)-4-Cyanothiazolidin-3-yl)-2-oxoethyl)-6-((R)-2-(trifluoromethyl)-morpholino)quinoline-4-carboxamide]		
20 µM (≈ 9.21 µg/mL)	360 nM			0.17 nM	0.1 nM	21 μL/min/1E6	41 µL/min/mg	N#C[C@@H]1CSCN1C(=O)CNC(=O)c1ccnc2ccc(-n3ccc(C(F)(F)F)n3)cc12 [Example 118, (R)—N-(2-(4-Cyanothiazolidin-3-yl)-2-oxoethyl)-6-(3-(trifluoromethyl)-1H-pyrazol-1-yl)quinoline-4-carboxamide]		
27 µM (≈ 11.9 µg/mL)	380 nM	0.000076 s⁻¹	9200000 M⁻¹ s⁻¹	0.014 nM	0.041 nM	5.4 μL/min/1E6	12 µL/min/mg	CC1(C)CN(c2ccc3nccc(C(=O)NCC(=O)N4CSC[C@H]4C#N)c3c2)C(=O)O1 [Example 13, (R)—N-(2-(4-Cyanothiazolidin-3-yl)-2-oxoethyl)-6-(5,5-dimethyl-2-oxooxazolidin-3-yl)quinoline-4-carboxamide]		
210 µM (≈ 86.4 µg/mL)	490 nM	0.00022 s⁻¹	26000000 M⁻¹ s⁻¹	0.035 nM	0.077 nM	<1 μL/min/1E6	< 3 µL/min/mg	COC1CN(c2ccc3nccc(C(=O)NCC(=O)N4CSC[C@H]4C#N)c3c2)C1 [Example 66, (R)—N-(2-(4-Cyanothiazolidin-3-yl)-2-oxoethyl)-6-(3-methoxyazetidin-1-yl)quinoline-4-carboxamide]		
960 µM (≈ 451 µg/mL)	740 nM	0.000056 s⁻¹	2900000 M⁻¹ s⁻¹	0.024 nM	0.16 nM	13 μL/min/1E6	63 µL/min/mg	COCC[C@@H]1COCCN1c1ccc2nccc(C(=O)NCC(=O)N3CSC[C@H]3C#N)c2c1 [Example 95, N-(2-((R)-4-Cyanothiazolidin-3-yl)-2-oxoethyl)-6-((R)-3-(2-methoxyethyl)-morpholino)quinoline-4-carboxamide]		
8.9 µM (≈ 4.13 µg/mL)	560 nM	0.00029 s⁻¹	3100000 M⁻¹ s⁻¹	0.1 nM	0.1 nM	4.7 μL/min/1E6	17 µL/min/mg	N#C[C@@H]1CSCN1C(=O)CNC(=O)c1ccnc2ccc(N3CC(CC(F)(F)F)C3)cc12 [Example 158, (R)—N-(2-(4-Cyanothiazolidin-3-yl)-2-oxoethyl)-6-(3-(2,2,2-trifluoroethyl)-azetidin-1-yl)quinoline-4-carboxamide]		
